Values quoted from earlier work, collected in US20070134724A1, “Phosphorylation of tau by abl” (priority 2005, published 2007).
Where a name gives a salt, the structure may show the parent alone. Read-outs that look alike come from different tables or passages of the source.

Columns and labels:
Aβ [1] = conditions: guinea pig brains
Aβ [2] = conditions: neurons

Cc1ccc(NC(=O)c2ccc(CN3CCN(C)CC3)cc2)cc1Nc1nccc(-c2cccnc2)n1 [Gleevec, imatinib mesylate]
production of Aβ (Aβ [1]): inhibits
production of Aβ (Aβ [2]): inhibits
